Assays:
female rats = test: Ovulation inhibition test in rat; assay type: in vivo; conditions: rat (Table 1-b); read-out: Ovulation Inhibition (rat) [ED50]
Procedure: Before the treatment is started, two […] cycles of female rats (weight: 190 to 210 g) were monitored. Only animals having a regular 4 day-cycle are used for the subsequent test. Starting in the metoestrus, the test compound is administered for 4 days (day 1 to 4) and the cycle is controlled thereafter.
For subcutaneous application, the test compounds are dissolved in benzyl benzoate/castor oil (1+9 v/v) and the daily dose is administered in a volume of 1 ml/kg body weight.
For peroral application, the test compounds are suspended in a carrier liquid (85 mg Myrj^R in 100 ml 0.9 % w/v NaCl solution) and the daily dose is administered in a volume of 2 ml/kg body weight.
On day 4, after the application of the test compound, those animals having estrus or metoestrus are ovariectomized under ether anesthesia on one side. Preparations of the tubes are prepared and they are investigated for ova by means of microscope. On day 5 all animals (intact and partly ovariectomized) are killed with carbon dioxide, the tubes are preserved and analyzed in the same way. It is then determined, as a percentage, in how many animals ovulation was inhibited.

rat mammary epithelium = test: Bioassay on proliferating/differentiating effects in the rat mammary epithelium (whole mount staining); assay type: in vivo; conditions: terminal end buds
Procedure: The object of this test is to evaluate the effect of progestins on the development of the mammary gland, in particular on the formation of terminal end buds in the mammary gland in estrogen primed rats.
Premature female rats (Wistar Han, SPF) are ovariectomized at the age of 21 days, 4 to 6 days before treatment start. The animals are treated for 6 days with standard estrogen (estrone, 70 µg/kg) and the test progestin (application volume: 0.1 ml/50g body weight; vehicle: benzylbenzoate/castor oil (1+4 v/v); subcutaneous). Control groups are e.g.: vehicle, estrone without progestin, estradiol together with a known progestin, e.g. R5020 (promegestone). After the 6-day treatment the animals are killed with carbon dioxide.
For the whole mount staining, animals are shaved in the left abdominal inguinal mammary region, which is cut from the body together with the skin. For the histological/immunohistochemical analyses the right abdominal inguinal mammary gland is cut from the body together with the connective tissue adhered thereto and fixed in 3.7 % formalin in PBS (phosphate buffer saline; without Ca^2+/Mg^2+).
The preparations are fixed over night in alcohol-formalin according to the method of Tellyesniczky (see below). Then the mammary gland tissue and subcutis adhered thereto are stripped from the cutis and the preparations are again fixed over night. The further steps are as follows: ethanol 70 %: 1.5 hours; acetone: 3 × 1.5 hours; acetone: over night; isopropanol: 1.5 hours; ethanol 96 %: 2 hours; hematoxylin-iron: 3 hours; VE water: first rinse the preparations and then 2 × 0.5 hours; ethanol 70 %: over night; ethanol 80 %: 1.5 hours; ethanol 96 %: 1.5 hours; isopropanol: 1.5 hours. The preparations are then moved to petri dishes and left in toluene for approximately 1 hour, i.e. until they have stopped to swim up. Then the preparations are treated with cedarwood oil (Merck, no. 1.06965). The incubation times above are minimum times and can be extended. In particular, incubation in ethanol 70 % after fixation can be extended to at least 2.5 weeks.
Preparation of the solutions necessary for the whole mount staining: • a) Alcohol-formalin according to Tellyesniczky: formaldehyde 37%: 81.8 ml, ethanol 70 %: 1636 ml, glacial acetic acid (to be added shortly before use): 81.8 ml (total: 1800 ml). • b) Hematoxylin mother solution: Hematoxylin (Merck, no. 1.15938): 10 g, ethanol 96 %: 100 ml. The solution must stand for 48 hours at 37 °C before use. It can be kept in a dark place for almost unlimited time. • c) Hematoxylin-iron solution for use: hematoxylin mother solution (filtered): 15.2 ml, ethanol 96 %: 1374 ml, FeCl3 x 6 H2O (s. 4): 91.1 ml, 1 mol/l HCl: 220 ml (total: 1700 ml); adjustment to a pH of 1.25 with 2mol/l NaOH. • d) FeCl3 x 6 H2O solution: FeCl3 x 6 H2O (Merck, no. 1.03943): 1.07 g, VE water: 90.2 ml, HCl: 37 %: 0.92 ml (total: 91.1 ml).
By means of a 40-fold magnification, the terminal end buds near the nipple in direction of the tail are counted. The area to be investigated should be about 1.8 mm^2. For well-differentiated preparations this area may be reduced, with at least 250 buds to be counted. After counting, the number of end buds per 1 mm^2 is calculated. […]

[1] = system: Pregnant rats (Wistar Han, SPF); test: Pregnancy maintenance test in rat; assay type: in vivo; conditions: ovariectomized pregnant rats, with estrone
Description: In rats, castration induces termination of pregnancy. Progestins (combined with estrogens) are capable of maintaining pregnancy in castrated animals. However, the degree of pregnancy maintenance in castrated rats is optimal only in a defined dose range. Therefore, higher as well as lower doses generally induce a weaker effect. Accompanying treatment with defined doses of estrone (E1) increases the pregnancy maintaining effect of progestins.
Pregnant rats (Wistar Han, SPF) of 190 to 220 g (5 to 8 animals per dose) are ovariectomized on day 8 of pregnancy, 2 hours after the first substance administration. From day 8 to day 14, rats are daily treated with test progestin in combination with a standard dose of E1. One day later, animals are killed with carbon dioxide. For each animal, the number of living and dead fetuses is determined according to the heartbeat of the embryos. In case of empty uteri, the number of implantation sites is determined by means of staining with a 10 % ammonium sulfide solution.
S.c. (subcutaneous) application: The test progestin is dissolved in benzyl benzoate/castor oil (1+4 v/v), and the daily dose is administered in a volume of 1 ml/kg body weight.
P.o. (peroral) application: The test progestin is suspended in a carrier liquid (85 mg Myrj^R in 100 ml 0.9 % w/v NaCl solution), and the daily dose is administered in a volume of 2 ml/kg body weight.
I.p. (intraperitoneal) application: The test progestin is dissolved in propylene glycol and charged in miniature osmotic pumps (type 2001, 1.0 µl/h, 7 days), which are placed in the abdominal cavity of the rat.
The standard dose of estrone is 0.005 mg/kg body weight s.c. and is dissolved in benzyl benzoate/castor oil ([…]).
It is determined the pregnancy maintenance per animal [%], the pregnancy maintenance per dose (median of single values) and the ED50 (dose, at which pregnancy is maintained in 50 % of the animals; 100 % corresponds to control animals that are not ovariectomized).

hPR-B = test: PR-B transcription assay (MTV-LUC reporter, SK-N-MC cells); assay type: cell-based, human; conditions: 10^-7 mol/l test compound relative to R5020 10^-7 mol/l, 24 hours, 0.1 µM
Procedure: (§1) The method for screening for PR isoform-specific progestins according to the present invention is carried out with first and second SK-N-MC cells stably transfected with a plasmid expressing the hPR-A (first cells) or the hPR-B (second cells) and the LUC reporter gene linked to the hormonally responsive MTV promoter.
The cells are cultured in Minimum Essential Medium with Earl's Salts (S-MEM, without L-glutamine; Gibco BRL, no. 21090-022), supplemented with 10 % fetal calf serum (FCS), penicillin 100U/streptomycin 100 µg/ml (Biochrom, no. A2213), L-glutamine 4 mmol/l (Gibco BRL, no. 25030-024), sodium pyruvate 1 mmol/l (Biochrom, no. L0473) and 1x non-essential amino acids (Biochrom, no. K0293) at a temperature of 37 °C and in an atmosphere of 5 % carbon dioxide.
(§2) For the transcription assay, the cells are seeded onto 96-well dishes (2x 10^4 cells/dish) and cultured in a medium as described above, with the exception that the FCS is replaced by a 3 % charcoal stripped FCS. 48 hours later, cells are contacted with prediluted test compounds. For determination of agonistic activity, cells are cultured in the presence of increasing concentrations (10^-6 to 10^-11 mol/l) of test progestins. As a positive control for reporter gene induction cells are treated with 10^-6 to 10^-11 mol/l R5020 (promegestone). As a negative control for reporter gene induction, cells are cultured in 1 % ethanol.
After incubation with test progestins for 24 hours, the medium is removed and cells are lysed with 20 µl of lysis buffer (Luciferase Assay System E 153A; Promega) and under agitation of the plate for 10 min. After addition of 30 µl of luciferase reagent (Luciferase Assay System E 151A + 152A; Promega) within 30 seconds per plate, the activity of the luciferase reporter gene product is determined in the cell lysates by means of a Microlite ML 3000 microtiter plate luminometer (Dynatech) in cycle mode.
(§3) Evaluation of the response gives the efficacy [%], and evaluation of the EC50 values gives the potency [nM]. Calculation of the agonistic activity is conducted as follows:
(§4) The LUC activity [%] for the measured data points is calculated as follows: relative LUC activity [%] = 100 x((response 10)^-6 (to 10)^-11 mol/l test compound - CO)/(CI - CO) [formula] wherein CI = 100 % stimulation (R5020, 10^-7 mol/l) and CO = 0 % stimulation (ethanol, 1 %).
(§5) Thus, the efficacy [%] is calculated according to: efficacy [%] = 100 x((response 10)^-7 mol/l test compound - CO)/(CI - CO) [formula]
(§6) The potency [nM], i.e. the EC50, is determined graphically.

hPR-A = test: PR-A transcription assay (MTV-LUC reporter, SK-N-MC cells); assay type: cell-based, human; conditions: 10^-7 mol/l test compound relative to R5020 10^-7 mol/l, 24 hours, 0.1 µM
Procedure: as §1, §2, §3, §4, §5, §6

## CCC(=O)[C@@]1(C)CC[C@H]2[C@@H]3CCC4=CC(=O)CCC4=C3CC[C@@]21C [R5020, promegestone, reference compound]
Female rats
  ED50: 0.06 mg/kg
Rat mammary epithelium; dose pair with 0.1 mg/kg R5020, independent test
  Mammary gland, whole mount staining (rat) [equi-efficient dose]: 0.1 mg/kg
Rat mammary epithelium; dose pair with 0.3 mg/kg R5020, independent tests
  Mammary gland, whole mount staining (rat) [equi-efficient dose]: 0.3 mg/kg
[1]
  Maintenance of pregnancy (rat) [ED50]: 0.1 mg/kg

## Cc1noc(=O)c2ccc(NC(=O)C(O)(CC3(c4cccc(C(F)(F)F)c4F)CC3)C(F)(F)F)cc12 (single isomer, unassigned; (+)) [((+)-2), (+)-6-{2-hydroxy-3-[1-(2-fluoro-3-trifluoromethylphenyl)-cyclopropyl]-2-trifluoromethyl-propionylamino}-4-methyl-2,3-benzoxazin-1-one]
hPR-B
  PR-B agonism efficacy: 67.5%
hPR-A
  PR-A agonism efficacy: 99.2%

## O=C1OCc2cc(NC(=O)C(O)(CC3(c4cccc(C(F)(F)F)c4F)CC3)C(F)(F)F)ccc21 (single isomer, unassigned; (+)) [((+)-4), (+)-5-{2-hydroxy-3-[1-(2-fluoro-3-trifluoromethylphenyl)-cyclopropyl]-2-trifluoromethyl-propionylamino}-phthalide]
hPR-B
  PR-B agonism efficacy: 82%
hPR-A
  PR-A agonism efficacy: 100%

## Cc1noc(=O)c2ccc(NC(=O)C(C)(O)CC3(c4cccc(C(F)(F)F)c4)CC3)cc12 (single isomer, unassigned; (+)) [((+)-3), (+)-6-{2-hydroxy-3-[1-(3-trifluoromethylphenyl)-cyclopropyl]-2-methyl-propionylamino}-4-methyl-2,3-benzoxazin-1-one]
hPR-B
  PR-B agonism efficacy: 71%
hPR-A
  PR-A agonism efficacy: 94%

From EP1344776A1, “5- 2-hydroxy-3-[1-(3-trifluoromethylphenyl)-cyclopropyl]-propionylamino -phtalide and 6- 2-hydroxy-3-[1-(3-trifluoromethylphenyl)-cyclopropyl]-propionylamino -4-methyl-2,3-benzoxazin-1-one derivatives with progesterone receptor modulating activity for use in fertility control, hormone replacement …” (Schering Aktiengesellschaft, priority 2002, dated 2003)
